How the values were obtained:
[1] = tested on: expression of d2EGFP in human colon cancer cells COLO 320DM cells; assay: Level of expression of d2EGFP after treatment of cells with 5-aza-2′-deoxycytidine and/or Trichostatin A (Example 6); format: cell-based; conditions: for accumulated fluorescence intensity / average fluorescence intensity: 3 days
Experimental: Fluorescence intensity of these cells were measured by using a cell sorter. The measurement was carried out by sorting 20,000 cells by setting living cells at a gate. The cell sorter used was made by Becton Dickinson, and operated under conditions as described in the manual attached thereto.
In this method for detecting the fluorescence intensity, detection limit was 1, and all fluorescence intensities of 1 or less would be detected as 1. In view of this, a product of a ratio (cell %) of cells of fluorescence intensities of 2 or more in all living cells (10,000 cells) and an average of the fluorescence intensities of the cells having fluorescence intensities of 2 or more was calculated out for each experimental plot. This product is referred to as “accumulated fluorescence intensity” hereinafter and in later Examples and shown in boxed letter in the figures.
A mixture of a plasmid (pSFVdhfr/d2EGFP) and the plasmid DNA having the Aves-derived HS4 insulator sequence was transfected to human colon cancer cells COLO 320DM cells by lipofection. The plasmid (pSFVdhfr/d2EGFP) was a plasmid having (a) IR and MAR derived from human DHFR gene locus, (b) Blasticidin tolerance gene, and (c) d2EGFP gene that was under control of TRE-promoter (Tetracycline inducing promoter). The plasmid DNA having the Aves-derived HS4 insulator sequence was identical with the one described in Example 2. From 2 days later since the gene transfection, the cells were selected with 5 μg/ml of Blasticidin (Funakoshi Corp.). After 3 to 4 weeks, many colonies of transformed cells were obtained.
Into a culture solution of the transformed cells, of 1 μM or 3 μM of 5-aza-2′ deoxycytidine (hereinafter referred to as “5-aza” where appropriate; Sigma) was added. Thereby, the cells were treated with 5-aza for 3 days. For comparison purposes, 20 nM of Trichostatin A (hereinafter referred to as “TSA” where appropriate; histone deacetylation inhibitor, Sigma), which is known as a material for increasing gene expression from the repeated sequence, was added to some culture solutions of the transformed cells and analyzed.

[2] = tested on: expression of d2EGFP in human colon cancer COLO 320DM cells; assay: Level of expression of d2EGFP by cell sorter in DM clone treated with 5-aza (Example 9); format: cell-based; conditions: DM clone treated with 3 μM of 5-aza for 3 days, then Doxycycline 1 μg/ml for 2 days
Text: An equimolar mixture of a plasmid (pSFVdhfr/d2EGFP) and pTet-ON plasmid (Clontech Laboratories Inc.) was simultaneously transfected into human colon cancer COLO 320DM cells. The plasmid (pSFVdhfr/d2EGFP) was a plasmid having (a) IR and MAR derived from human DHFR gene locus, (b) Blasticidin tolerance gene, and (c) d2EGFP gene that was under control of TRE-promoter (Tetracycline inducing promoter). Meanwhile, the pTet-ON plasmid was a plasmid having Tet-ON gene encoding the transcription activating factor (Tet-ON protein) of TRE-promoter. The cells were selected with 5 μg/ml of Blasticidin thereby obtaining a polyclonal population of transformed cells. […] In FIG. 20, the detected base sequence derived from the pSFVdhfr/d2EGFP plasmid is indicated by the arrow. […]
In each culture solution of the two clones, 3 μM of 5-aza was added and thereby the clones were treated with 5-aza for 3 days. […] After the culturing, the level of the expression of d2EGFP in each clone was analyzed by a cell sorter. […] This polyclonal population of transformed cells was subjected to the induction of expression of d2EGFP with Doxycycline and a level of the expression of d2EGFP therein was analyzed by using the cell sorter in the same way as described above. […] FIG. 21(a) illustrates the result of the fluorescence intensity measurements of HSR clone two days after the addition of Doxycycline. […]

`Nc1ncn([C@H]2C[C@H](O)[C@@H](CO)O2)c(=O)n1` [5-aza, 5-aza-2′-deoxycytidine] gave an accumulated fluorescence intensity ([1]; 1 μM of 5-aza) of 895, an average fluorescence intensity ([1]; 1 μM of 5-aza) of 9.48 and an accumulated fluorescence intensity ([1]; 3 μM of 5-aza) of 1040. For the same molecule, the average fluorescence intensity ([1]; 3 μM of 5-aza) was 10.93, the “fluorescence intensity of the cells after treatment versus before treatment” value ([1]; fluorescence microscopic images, 1 μM of 5-aza) was “higher” and the accumulated fluorescence intensity [2] was 238113.

— patent US8771983B2, “Method and kit for expressing protein under regulation of the expression from repeated sequence formed by gene amplification, and transformant” (National University of Corporation Hiroshima University, priority 2004, dated 2014)
